This note sets out measurements from PubChem BioAssay AID330 (DTP/NCI, 2004).

This assay concerns P388 leukemia ip, CD2F1 mice, survival T/C. Briefly: NCI In Vivo Anticancer Drug Screen. Data for tumor model P388 Leukemia (intraperitoneal) in CD2F1 (CDF1) mice. Conditions: endpoint: median survival time, higher = longer survival. In outline:
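Mice carrying the transplanted tumor received test compound or vehicle. Survival was recorded in each group, and the value is the treated-group measurement divided by that of the vehicle-treated control group.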

Setting [1] is: dose: 60.0 mg/kg/injection, schedule: Q01DX005 (ip), vehicle: saline with Tween-80.
The mark [2] stands for this setting: dose: 120.0 mg/kg/injection, schedule: Q01DX005 (ip), vehicle: saline with Tween-80.
The mark [3] stands for this setting: dose: 240.0 mg/kg/injection, schedule: Q01DX005 (ip), vehicle: saline with Tween-80.
Where [4] appears, read: dose: 50.0 mg/kg/injection, schedule: Q01DX009 (ip), vehicle: Klucel (hydroxypropylcellulose) (HPC).
The mark [5] stands for this setting: dose: 100.0 mg/kg/injection, schedule: Q01DX009 (ip), vehicle: Klucel (hydroxypropylcellulose) (HPC).
Setting [6] is: dose: 200.0 mg/kg/injection, schedule: Q01DX009 (ip), vehicle: Klucel (hydroxypropylcellulose) (HPC).
The mark [7] stands for this setting: dose: 50.0 mg/kg/injection, schedule: Q01DX005 (ip), vehicle: saline with Tween-80.
Where [8] appears, read: dose: 100.0 mg/kg/injection, schedule: Q01DX005 (ip), vehicle: saline with Tween-80.
Setting [9] is: dose: 200.0 mg/kg/injection, schedule: Q01DX005 (ip), vehicle: saline with Tween-80.
Where [10] appears, read: dose: 15.0 mg/kg/injection, schedule: Q01DX005 (ip), vehicle: saline with Tween-80.
The mark [11] stands for this setting: dose: 30.0 mg/kg/injection, schedule: Q01DX005 (ip), vehicle: saline with Tween-80.

“And” between values parts separate entries of the source, which are not always exact repeats. Equal values may be shown once. Inconclusive results and toxic doses are left out.

For the compound `[Cl][Pt+2][Cl].[NH-]C1CCCCCCC1.[NH-]C1CCCCCCC1`, the T/C is 106 % of control (dose: 12.5 mg/kg/injection, schedule: Q01DX009 (ip), vehicle: other); 97 % of control (dose: 25.0 mg/kg/injection, schedule: Q01DX009 (ip), vehicle: other); 101 % of control (dose: 50.0 mg/kg/injection, schedule: Q01DX009 (ip), vehicle: other); 117 % of control (dose: 100.0 mg/kg/injection, schedule: Q01DX009 (ip), vehicle: other); 108 % of control (dose: 200.0 mg/kg/injection, schedule: Q01DX009 (ip), vehicle: other).
Turning to `O=C(O)c1cc(S(=O)(=O)F)c(Cl)cc1Cl`, the T/C is 119 % of control under setting [1], 104 % of control under setting [2] and 104 % of control under setting [3].
With `O=C1NC(=O)N(c2ccc([N+](=O)[O-])cc2)C1=O`, the T/C by setting is: under setting [4], 86 % of control; under setting [5], 89 % of control; under setting [6], 86 % of control (2×) and 93 % of control.
As to `CCCCCCN(CCCCCC)CC(O)c1cc2c(c3ccccc13)CCCC2` (stereo not drawn), the T/C reads like this: under setting [7], 94 % of control; under setting [8], 103 % of control; under setting [9], 103 % of control.
For `CCOC(=O)C(CC(C)C)NC(=O)c1cnc2ccccc2c1` (stereo not drawn), the T/C under setting [1] was 104 % of control, the T/C under setting [2] is 103 % of control and the T/C under setting [3] was 99 % of control.
As to `O=C1c2ccccc2-c2nc3ccccc3n21`, the T/C is, setting by setting: (dose: 100.0 mg/kg/injection, schedule: Q01DX001 (ip), vehicle: saline) 100 % of control; (dose: 100.0 mg/kg/injection, schedule: Q04DX002 (ip), vehicle: saline with Tween-80) 100 % of control; (dose: 200.0 mg/kg/injection, schedule: Q01DX001 (ip), vehicle: saline) 108 % of control; (dose: 200.0 mg/kg/injection, schedule: Q04DX002 (ip), vehicle: saline with Tween-80) 106 % of control; (dose: 400.0 mg/kg/injection, schedule: Q01DX001 (ip), vehicle: saline) 106 % of control; (dose: 400.0 mg/kg/injection, schedule: Q04DX002 (ip), vehicle: saline with Tween-80) 100 % of control.
For the compound `COc1cc(C)c(/C(=N/O)n2nnc(-c3ccccc3)n2)c(C)c1`, the T/C runs as follows: under setting [10], 98 % of control; under setting [11], 100 % of control; under setting [1], 100 % of control and 91 % of control.
With `c1ccc(-c2c3ccccc3c(-c3ccccc3)c3c(-c4ccccc4)c4ccccc4c(-c4ccccc4)c23)cc1`, the T/C was 105 % of control under setting [10]; 106 % of control under setting [11]; 91 % of control and 94 % of control under setting [1].
As for `CCN(CC)CCCNc1nccc2c(C)c3[nH]c4ccncc4c3cc12`, the T/C reads like this: (dose: 0.5 mg/kg/injection, schedule: Q04DX003 (ip), vehicle: other) 162 % of control; (dose: 0.5 mg/kg/injection, schedule: Q04DX003 (iv), vehicle: other) 110 % of control; (dose: 0.58 mg/kg/injection, schedule: Q04DX003 (ip), vehicle: other) 155 % of control; (dose: 0.97 mg/kg/injection, schedule: Q04DX003 (ip), vehicle: other) 156 % of control; (dose: 1.0 mg/kg/injection, schedule: Q04DX003 (iv), vehicle: other) 110 % of control; (dose: 1.62 mg/kg/injection, schedule: Q04DX003 (ip), vehicle: other) 182 % of control. Moreover, the T/C runs as follows: (dose: 2.0 mg/kg/injection, schedule: Q04DX003 (iv), vehicle: other) 112 % of control; (dose: 2.7 mg/kg/injection, schedule: Q04DX003 (ip), vehicle: other) 189 % of control; (dose: 3.24 mg/kg/injection, schedule: Q04DX002 (ip), vehicle: other) 170 % of control and 175 % of control; (dose: 3.89 mg/kg/injection, schedule: Q04DX002 (ip), vehicle: other) 179 % of control; (dose: 4.0 mg/kg/injection, schedule: Q04DX003 (iv), vehicle: other) 122 % of control; (dose: 4.5 mg/kg/injection, schedule: Q04DX003 (ip), vehicle: other) 196 % of control. The T/C by setting is: (dose: 5.4 mg/kg/injection, schedule: Q04DX002 (ip), vehicle: other) 168 % of control and 185 % of control; (dose: 6.48 mg/kg/injection, schedule: Q04DX002 (ip), vehicle: other) 213 % of control; (dose: 7.5 mg/kg/injection, schedule: Q04DX003 (ip), vehicle: other) 182 % of control; (dose: 9.0 mg/kg/injection, schedule: Q04DX002 (ip), vehicle: other) 200 % of control and 207 % of control; (dose: 10.8 mg/kg/injection, schedule: Q04DX002 (ip), vehicle: other) 194 % of control; (dose: 15.0 mg/kg/injection, schedule: Q04DX002 (ip), vehicle: other) 200 % of control and 217 % of control. Also, the T/C (dose: 18.0 mg/kg/injection, schedule: Q04DX002 (ip), vehicle: other) was 215 % of control.
As for `CC(=O)Oc1ccc2c(c1)c1c(OC(C)=O)c(N(C)C(C)=O)cc(OC(C)=O)c1n2C`, the T/C runs as follows: (dose: 50.0 mg/kg/injection, schedule: Q01DX009 (ip), vehicle: saline) 100 % of control; (dose: 100.0 mg/kg/injection, schedule: Q01DX009 (ip), vehicle: saline) 86 % of control; (dose: 200.0 mg/kg/injection, schedule: Q01DX009 (ip), vehicle: saline) 100 % of control.
As to `O=S(=O)(Nc1cccnc1)c1ccccc1`, the T/C by setting is: under setting [1], 106 % of control; under setting [2], 100 % of control; under setting [3], 105 % of control.
Regarding `CC(Cc1ccccc1)NC(=O)c1cccnc1` (stereo not drawn), the T/C is, setting by setting: (dose: 50.0 mg/kg/injection, schedule: Q01DX005 (ip), vehicle: Klucel (hydroxypropylcellulose) (HPC)) 98 % of control; (dose: 100.0 mg/kg/injection, schedule: Q01DX005 (ip), vehicle: Klucel (hydroxypropylcellulose) (HPC)) 90 % of control; (dose: 200.0 mg/kg/injection, schedule: Q01DX005 (ip), vehicle: Klucel (hydroxypropylcellulose) (HPC)) 99 % of control.
As to `COC(=O)NC1(NC(=O)OC)NC(=O)c2ccccc2N1`, the T/C is 98 % of control (dose: 25.0 mg/kg/injection, schedule: Q01DX005 (ip), vehicle: DMSO) and 100 % of control (dose: 50.0 mg/kg/injection, schedule: Q01DX005 (ip), vehicle: DMSO).
In the case of `OCCN1OCCCC1c1ccccc1` (stereo not drawn), the T/C (dose: 50.0 mg/kg/injection, schedule: Q01DX009 (ip), vehicle: saline with Tween-80) was 94 % of control and the T/C (dose: 100.0 mg/kg/injection, schedule: Q01DX009 (ip), vehicle: saline with Tween-80) was 92 % of control.
For `COc1cccc(C2SCC(=O)N2c2nncs2)c1` (stereo not drawn), the T/C is, setting by setting: under setting [1], 100 % of control; under setting [2], 97 % of control; under setting [3], 104 % of control.
Take `CCOC(=O)C(C#N)C=Nc1cccc(N(C)C)c1` (stereo not drawn): the T/C is, setting by setting: under setting [4], 108 % of control; under setting [5], 117 % of control; under setting [6], 104 % of control.
Regarding `O=C(c1ccc(Cl)cc1)n1c(Cl)c(/C=N\Nc2cccc([N+](=O)[O-])c2)c2ccccc21`, the T/C was 86 % of control (dose: 50.0 mg/kg/injection, schedule: Q01DX001 (ip), vehicle: Klucel (hydroxypropylcellulose) (HPC)); 86 % of control (dose: 100.0 mg/kg/injection, schedule: Q01DX001 (ip), vehicle: Klucel (hydroxypropylcellulose) (HPC)); 87 % of control (dose: 200.0 mg/kg/injection, schedule: Q01DX001 (ip), vehicle: Klucel (hydroxypropylcellulose) (HPC)).
Consider `O=c1cc(N2CCOCC2)n2ccccc2n1`, for which the T/C was 96 % of control (dose: 60.0 mg/kg/injection, schedule: Q01DX005 (ip), vehicle: saline); 102 % of control (dose: 120.0 mg/kg/injection, schedule: Q01DX005 (ip), vehicle: saline); 96 % of control (dose: 240.0 mg/kg/injection, schedule: Q01DX005 (ip), vehicle: saline).
With `O=C(NN1CCCCC1)NN1CCCCC1`, the T/C by setting is: under setting [7], 101 % of control; under setting [8], 100 % of control; under setting [9], 100 % of control.
Regarding `CC1CCCC/C1=N\N(C)C` (stereo not drawn), the T/C is 100 % of control under setting [1] and 94 % of control under setting [2].
